Results: patent US20040101916A1, “Treatment of liver diseases” (priority 2002, published 2004)

Key:
GADD45α = conditions: HepG2 clone, Northern blot
Procedure: (§1) Expression of GADD45α and GADD45β after alcohol treatment was determined by Northern blot in HepG2 clone.

GADD45β [1] = conditions: HepG2 clone, Northern blot
Procedure: as §1

[2] = tested on: NF-κB box of the GADD45β promoter region; test: Gel retardation assay, nuclear proteins of CL-48 cells on NF-κB box of the GADD45β promoter; type: cell-based; conditions: CL-48 nuclear proteins, 48 hours after 2.0 mM SAMe or 200 mM alcohol, compared to non-treated control cells
Procedure: Nuclear proteins were extracted as mentioned above. End-labeled oligonucleotides corresponding to the NF-κB box of the GADD45β promoter region were incubated with the extracted nuclear proteins, and the binding complexes were then separated on a 6% retardation gel.

GADD45β [3] = test: Northern blot of GADD45β expression after SAMe treatment in CL-48 normal liver cells; type: cell-based; conditions: CL-48 cells, 0, 1.0 mM, 2.0 mM SAMe, 72 hours
Procedure: (§2) CL-48 and HepG2 cells were treated with 0, 1.0 mM, and 2.0 mM SAMe. After 72 hours of treatment, Northern blot was performed to analyze the expression of GADD45β, using 18S RNA as an internal loading control.

GADD45β [4] = test: Northern blot of GADD45β expression after SAMe treatment in HepG2 cells; type: cell-based, human
Procedure: as §2
(§3) Expression of GADD45β after SAMe treatment under different p53 backgrounds was examined by Northern blot.

GADD45β [5] = test: Northern blot of GADD45β expression after SAMe treatment in Hep3B (p53 null); type: cell-based, human
Excerpt: as §3

[6] = tested on: CCAAT/NF-Y boxes of the GADD45β promoter region; test: Gel retardation / super-shift assay, nuclear proteins of CL-48 cells on CCAAT/NF-Y boxes of the GADD45β promoter; type: cell-based; conditions: CL-48 nuclear proteins
Procedure: End-labeled oligonucleotides corresponding to the CCAAT/NF-Y boxes of the GADD45β promoter region were incubated with the extracted nuclear proteins, and the binding complexes were then separated on a 6% retardation gel. Protein binding sites on the GADD45β promoter Pα region were identified using unlabeled oligonucleotide competitors and NF-Y antibodies.

`CCO` [alcohol] was tested, and the “expression of GADD45α after alcohol treatment” value (GADD45α) was “increases in a dose-dependent manner”, the “expression of GADD45β after alcohol treatment” value (GADD45β [1]) was “does not change” and the “amount of binding complexes on NF-κB box oligonucleotides” value [2] was “decreased amount of one binding complex and an increased amount of another binding complex”.

`C[S+](CC[C@H](N)C(=O)O)C[C@H]1O[C@@H](n2cnc3c(N)ncnc32)[C@H](O)[C@@H]1O` (stereo partly shown) [SAMe, S-Adenosylmethionine] was tested, and the “induction of GADD45β expression” value (GADD45β [3]) was “induced by a low dose of SAMe in CL-48 cells, and the induction reaches plateau at a higher dose of SAMe”, the “expression of GADD45β after SAMe treatment” value (GADD45β [4]; HepG2 (p53 wild type), different dose ranges) was “up-regulated” and the “induction of GADD45β expression” value (GADD45β [4]; HepG2 cells, 0, 1.0 mM, 2.0 mM SAMe, 72 hours) was “the induction remains dose-dependent”. The “expression of GADD45β after SAMe treatment” value (GADD45β [5]) was “failed to be induced”, the “amount of major protein-binding band on CCAAT/NF-Y oligonucleotides” value ([6]; 48 hours after 2.0 mM SAMe, compared to non-treated controls) was “amount of a major band decreased” and the “super-shift of binding complex with NF-Y antibodies” value ([6]; SAMe-treated samples) was “the binding complex is shifted”. For the same molecule, the “amount of binding complexes on NF-κB box oligonucleotides” value [2] was “decreased amount of one binding complex and an increased amount of another binding complex”.
